For the experiment, the system named is mouse melanoma cells (B16F10 cell line). Put plainly: Melanin inhibition assay. In kind it is cell-based. Conditions: found through experimentation; H3 antagonists. How it is done: The assays utilized mouse melanoma cells (B16F10 cell line) which are very efficient at producing melanin. Various inhibitors and enhancers of melanin synthesis were added to the cultured cells along with experimental samples.
The B16F10 murine melanocytes were seeded into 24-well tissue culture plates and allowed to grow to confluency in complete DMEM. Solutions of H3 antagonists, Arbutin, alpha-Melanocyte Stimulating Hormone (a-MSH), and AA2G were prepared in Complete DMEM. Complete Dulbeco's Modified Eagle Media (DMEM) was used as the untreated control. Additionally, the individual components of the H3 antagonists, Yeast Peptide and Plant Extract, were also analyzed for melanogenic effects. Cells were treated for 72 hours.
For the inhibition assay, the media was removed from the wells and the monolayers were washed with phosphate buffered saline (PBS). NaOH was added to each well and 100 μL of each solution were added to a 96-well plate in duplicate. The plate was measured by optical density readings at 400 nm.
As discussed above, skin pigmentation is determined by the amount of melanin in the skin which is produced by […] melanocytes. In addition to the melanin inhibition study comparing the fermented plant abstract to AA2G, Arbutin, α-MSH, and Kojic acid, a melanin inhibition study was conducted to compare the fermented plant extract with its individual components—peptide from yeast and plant extract—to assess their ability to inhibit melanin synthesis. The melanin assay was conducted using the same methodogies as discussed above with respect to H3 antagonists, in general.

Where a name gives a salt, the structure may show the parent alone.

Consider `Br.Br.C[C@@H](N)Cc1c[nH]cn1` [(R)-(-)-a-Methylhistamine dihydrobromide], for which the “suitability to reduce or eliminate pigmentation in a users skin” value is “suitable for use as a by-product in cosmetics to reduce or eliminate pigmentation”. As for `C[C@H]1[C@H]2CC[C@H]3[C@@H]4CC=C5C[C@@H](N(C)C)CC[C@]5(C)[C@H]4CC[C@]23CN1C` [Conessine], the “suitability to reduce or eliminate pigmentation in a users skin” value is “suitable for use as a by-product in cosmetics to reduce or eliminate pigmentation”. With `N=C(N)SCCc1cnc[nH]1` [Imetit dihydrobromide], the “suitability to reduce or eliminate pigmentation in a users skin” value is on record as “suitable for use as a by-product in cosmetics to reduce or eliminate pigmentation”. For the compound `NCCCCCc1cnc[nH]1` [Impentamine dihydrobromide], the “suitability to reduce or eliminate pigmentation in a users skin” value is given as “suitable for use as a by-product in cosmetics to reduce or eliminate pigmentation”.

(Values after patent publication US20150272863A1, “H3 ANTAGONIST BY-PRODUCT, ITS MANUFACTURE, AND METHOD OF USING BY-PRODUCT TO REDUCE PIGMENTATION IN SKIN” (Active Concepts, LLC, priority 2014, published 2015).)
